Data from PMC4168026 (BioMed Research International, 2014).
“And” between values parts separate entries of the source, which are not always exact repeats. Equal values may be shown once.

Legend:
CA VII [1] = biological target: T1, CA VII (Homo sapiens, UniProt P43166); assay: Fluorescent thermal shift assay (FTSA), CA VII; assay type: binding; conditions: for Kd: FTSA
T1 construct: five isoforms of human recombinant catalytic domains of carbonic anhydrases (CAs); made in house

CA XII [2] = biological target: T2, CA XII (Homo sapiens, UniProt O43570); assay: Isothermal titration calorimetry (ITC), CA XII; assay type: binding
T2 construct: five isoforms of human recombinant catalytic domains of carbonic anhydrases (CAs); made in house
T2 sequence (O43570 30-289 limits assumed): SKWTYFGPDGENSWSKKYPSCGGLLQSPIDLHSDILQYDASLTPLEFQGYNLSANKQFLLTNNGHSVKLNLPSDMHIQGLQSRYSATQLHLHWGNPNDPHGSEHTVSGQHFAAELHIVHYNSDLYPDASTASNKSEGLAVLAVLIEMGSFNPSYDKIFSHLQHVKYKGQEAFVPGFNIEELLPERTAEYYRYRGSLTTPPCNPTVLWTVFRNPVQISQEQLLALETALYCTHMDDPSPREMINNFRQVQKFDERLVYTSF

CA VII [3] = conditions: read-out: affinity, CA VII; inhibition method, literature value ref 5; cited from earlier work
CA VII [4] = biological target: T1, CA VII; assay: Isothermal titration calorimetry (ITC), CA VII; assay type: binding
CA XIII [5] = biological target: T3, CA XIII (Homo sapiens, UniProt Q8N1Q1); assay: Fluorescent thermal shift assay (FTSA), CA XIII; assay type: binding; conditions: for shift of the melting temperature Tm, CA XIII: compound added to 200 μM, pH 7.0
T3 construct: five isoforms of human recombinant catalytic domains of carbonic anhydrases (CAs); made in house
T3 sequence (Q8N1Q1 4-261 limits assumed): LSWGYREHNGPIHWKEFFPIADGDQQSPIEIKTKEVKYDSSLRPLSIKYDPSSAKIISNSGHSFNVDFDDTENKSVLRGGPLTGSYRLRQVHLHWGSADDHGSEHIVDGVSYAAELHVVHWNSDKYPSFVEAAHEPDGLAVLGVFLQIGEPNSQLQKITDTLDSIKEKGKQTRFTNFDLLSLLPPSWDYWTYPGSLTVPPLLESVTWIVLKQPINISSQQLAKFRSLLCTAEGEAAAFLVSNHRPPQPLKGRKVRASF

CA XIII [6] = biological target: T3, CA XIII; assay: Isothermal titration calorimetry (ITC), CA XIII; assay type: binding
CA I [7] = biological target: T4, CA I (Homo sapiens, UniProt P00915); assay: Isothermal titration calorimetry (ITC), CA I; assay type: binding
T4 construct: five isoforms of human recombinant catalytic domains of carbonic anhydrases (CAs); made in house
T4 sequence (P00915 4-261 limits assumed): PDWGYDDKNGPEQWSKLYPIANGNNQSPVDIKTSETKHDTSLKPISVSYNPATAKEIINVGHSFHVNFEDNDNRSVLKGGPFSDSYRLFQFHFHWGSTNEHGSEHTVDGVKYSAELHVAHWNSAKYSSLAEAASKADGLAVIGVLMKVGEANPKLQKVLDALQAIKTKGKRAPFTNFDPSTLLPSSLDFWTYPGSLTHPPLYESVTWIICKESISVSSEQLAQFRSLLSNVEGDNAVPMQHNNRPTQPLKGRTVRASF

CA I [8] = biological target: T4, CA I; assay: Fluorescent thermal shift assay (FTSA), CA I; assay type: binding; conditions: for Kd: FTSA; for energetic contribution (difference in ΔG of binding), CA I: against compound 2, from FTSA, pH 7.0, 37°C
CA XII [9] = biological target: T2, CA XII; assay: Fluorescent thermal shift assay (FTSA), CA XII; assay type: binding
CA II [10] = biological target: T5, CA II (Homo sapiens, UniProt P00918); assay: Fluorescent thermal shift assay (FTSA), CA II; assay type: binding; conditions: 37°C, pH 7.0, read-out: Dissociation constants Kd, CA II
T5 construct: five isoforms of human recombinant catalytic domains of carbonic anhydrases (CAs); made in house

CA II [11] = biological target: T5, CA II; assay: Isothermal titration calorimetry (ITC), CA II; assay type: binding
[12] = ITC, 37°C, pH 7.0, read-out: Dissociation constants Kd, CA XII
[13] = 37°C, pH 7.0, read-out: Dissociation constants Kd, CA VII
[14] = 37°C, pH 7.0, read-out: Dissociation constants Kd, CA XIII
[15] = ITC, 37°C, pH 7.0, read-out: Dissociation constants Kd, CA I
[16] = 37°C, pH 7.0, read-out: Dissociation constants Kd, CA I
[17] = 37°C, pH 7.0, read-out: Dissociation constants Kd, CA XII
[18] = ITC, 37°C, pH 7.0, read-out: Dissociation constants Kd, CA II

T1 sequence (P43166 5-262 limits assumed): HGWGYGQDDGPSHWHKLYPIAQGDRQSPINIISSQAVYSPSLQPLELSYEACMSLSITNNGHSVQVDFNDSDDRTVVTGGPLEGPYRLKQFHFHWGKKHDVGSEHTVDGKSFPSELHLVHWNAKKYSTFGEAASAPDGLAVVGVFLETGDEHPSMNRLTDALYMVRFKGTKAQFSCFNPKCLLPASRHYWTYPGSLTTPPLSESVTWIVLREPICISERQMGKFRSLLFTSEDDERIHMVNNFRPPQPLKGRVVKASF

Kd (CA XII [2]; [12])	Kd (CA VII [4]; [13])	Kd (CA XIII [5]; [14])	Kd (CA XIII [6]; [14])	Kd (CA I [7]; [15])	Kd (CA I [8]; [16])	Kd (CA VII [1]; [13])	Kd (CA II [10])	shift of the melting temperature Tm, CA XIII (CA XIII [5])	energetic contribution (difference in ΔG of binding), CA I (CA I [8])	Kd (CA XII [9]; [17])	Kd (CA II [11]; [18])	SMILES	further results
> 100 µM	> 100 µM	2000 µM	> 100 µM	> 100 µM	> 10000 µM	–	–	–	–	–	–	O=C1NS(=O)(=O)c2ccccc21 [Compound 1, saccharin, reference compound]	affinity weaker than the literature value, CA VII (CA VII [1]; FTSA Kd against 10 nM of ref 5): 100,000 fold; Kd (CA VII [1]; read-out: Kd, CA VII): 1000 µM; Kd (CA XII [2]; ITC, all tested CAs, read-out: Kd, CA XII): > 100 µM; Ki (CA VII [3]): 0.01 µM; Kd (CA VII [4]; all tested CAs, read-out: Kd, CA VII): > 100 µM; Kd (CA XIII [5]; read-out: Kd, CA XIII): 2000 µM; Kd (CA XIII [6]; all tested CAs, read-out: Kd, CA XIII): > 100 µM; Kd (CA I [7]; ITC, all tested CAs, read-out: Kd, CA I): > 100 µM; Kd (CA I [8]; no shift up to 7.5 mM, read-out: Kd, CA I): > 10000 µM; Kd (CA XII [9]; read-out: Kd, CA XII): 5900 µM
0.04 µM	< 0.02 µM	0.0067 µM	< 0.02 µM	< 0.02 µM	–	0.0043 µM	0.0025 µM	significant	-5.93 kcal/mol	0.025 µM	< 0.02 µM	NS(=O)(=O)c1ccc2c(c1)S(=O)(=O)N(CCc1ccccc1)C2=O [Compound 4]	Kd (CA I [8]; read-out: affinity (Kd), CA I): 0.00033 µM
0.25 µM	0.16 µM	0.045 µM	0.047 µM	0.028 µM	0.018 µM	0.11 µM	0.02 µM	significant	-3.47 kcal/mol	0.29 µM	0.056 µM	CC#CCN1C(=O)c2ccc(S(N)(=O)=O)cc2S1(=O)=O [Compound 3]	–
–	–	~0.2 µM and 0.2 µM	0.12 µM	–	–	–	0.4 µM	–	–	0.22 µM	–	NS(=O)(=O)c1ccc2c(c1)S(=O)(=O)NC2=O [Compound 2]	Kd (CA XII [2]): 0.099 µM; Kd (CA I [7]): 1.4 µM; Kd (CA II [11]): 0.29 µM
